Measured values published in patent US8563067B2, “Extended shelf life and bulk transport of perishable organic liquids with low pressure carbon dioxide” (Cornell Research Foundation, Inc., priority 2004, dated 2013).

Tests used:
[1] = test system: coliforms; assay: Total coliforms (Petrifilm) in raw milk under CO2 pressure (Example 1); assay type: cell-based; conditions: 689 kPa CO2 pressure, 4° C.
Description: (§1) Milk samples were mixed and 5 ml of milk added into the treatment and control vessels. The treatment vessel was connected to the apparatus and the control vessel closed off. Both vessels were placed in the water bath. When the desired temperatures were attained in both treatment and control vessels, CO2 was introduced through the bottom of the treatment vessel until the set pressure was reached. The CO2 pressure was maintained throughout the test period. When the desired time was reached, the CO2 inlet was turned off, the pressure release valve on the outlet line opened, and the pressure released in under one minute. After depressurization, the treatment and control vessels were removed from the water bath and their external surfaces were wiped dry, sanitized with 95% ethanol, detached from the apparatus and transferred into sterile containers for dilution and plating.
(§2) The progression of these counts (total, Coliform/E. coli and thermoduric bacteria) in the treatment and control samples was tracked by conducting checks on the total aerobic counts (SPC) on treatment days 4 and 6. Based on the levels of total counts on days 4 and 6, analyses of total coli forms/E. coli and thermoduric bacteria after day 6 were conducted either in 1-day or 2-day intervals. The control sample final count was measured on days 4 and 6.
(§3) Initial total, coliform, and thermoduric counts were each determined for control and treated samples. Thermoduric organisms were enumerated by the laboratory pasteurization count (LPC) method described in the Standard Methods for the Examination of Dairy Products (Houghtby et al., 1992). The 3M Petri film count plate (3M Microbiology Products, St. Paul, Minn.) was used to enumerate total coli forms and Escherichia coli in the raw, treated and control milk samples.

[2] = test system: Escherichia coli; assay: E. coli count (Petrifilm) in raw milk under CO2 pressure (Example 1); assay type: cell-based; conditions: 4° C.
Description: as §1, §2, §3

[3] = test system: gram-negative lactose fermenting bacteria; assay: Gram-negative lactose fermenting bacteria on MacConkey agar, raw milk under CO2 pressure (Example 1); assay type: cell-based; conditions: 6.1° C., 4 days
Description: (§4) Raw milk from the T&R Center was monitored for changes in aerobic bacteria, gram-negative bacteria and total Lactobacillus spp. as follows: CO2 pressures of 0 (control), 68, 172, 344, 516 and 689 kPa, at 6.1° C. for 4-days. SPC, gram-negative bacteria and total Lactobacillus spp. were enumerated before (day 0) and after (day 4) treatment. Gram negative bacteria were enumerated on MacConkey Agar (Difco Manual, Becton Dickinson & Co., Sparks, Md.), a selective and differential media which can be used to discriminate between lactose fermenting and non-lactose fermenting gram-negative bacteria. Use of this media allows a one-step method of obtaining estimates of both coliform and non-coliform gram negative bacteria. Coliform bacteria may include species of Escherichia, Klebsiella and Enterobacter, potential pathogens and/or spoilage organisms. Non-coliform gram negative bacteria may include spoilage organisms such as pseudomonads or potential pathogens such as Salmonella spp. or Shigella spp. […]
(§5) For all microbiological assays, milk sample aliquots of 1 ml were used in dilution series. […] Representative and distinctive suspect colonies were gram stained, and confirmed gram positive bacilli colonies were counted as an estimate of total Lactobacillus spp.

[4] = test system: gram-negative non-lactose fermenting bacteria; assay: Gram-negative non-lactose fermenting bacteria on MacConkey agar, raw milk under CO2 pressure (Example 1); assay type: cell-based; conditions: 6.1° C., 4 days
Description: as §4, §5

[5] = test system: Lactobacillus plantarum; conditions: CO2 pressures of 13 MPa, 30° C., 30 minutes (Hong and Pyun, 1999); cited from earlier work

Structure (SMILES): O=C=O [CO2, carbon dioxide]
- Coliforms counts, Treated, 4 Days ([1]; 4 days): 1.0 * 10^2h cfu/ml
- Coliforms counts, Treated, 6 Days ([1]; 6 days): 1.0 * 10^2h cfu/ml
- Coliforms counts, Treated, 8 Days ([1]; 8 days): 9.3 * 10^1h cfu/ml
- Coliforms counts, Treated, 9 Days ([1]; 9 days): 9.0 * 10^1h cfu/ml
- E.coli counts, Treated, 4 Days ([2]; 689 kPa CO2 pressure, 4 days, raw milk): 1.7 * 10^1k cfu/ml
- E.coli counts, Treated, 6 Days ([2]; 689 kPa CO2 pressure, 6 days, raw milk): 1.7 * 10^1k cfu/ml
- E.coli counts, Treated, 8 Days ([2]; 689 kPa CO2 pressure, 8 days, raw milk): 1.7 * 10^1k cfu/ml
- E.coli counts, Treated, 9 Days ([2]; 689 kPa CO2 pressure, 9 days, raw milk): 1.5 * 10^1k cfu/ml
- E. coli counts in treated milk ([2]; 689 kPa, up to 9 days): Neither E. coli nor total thermoduric bacteria counts increased
- levels of gram-negative fermenters compared to untreated controls ([3]; 68 to 689 kPa): reduced at all pressures
- decrease of gram-negative lactose fermenting bacteria compared to initial counts ([3]; 689 kPa): 0.80 log10 cfu/ml
- levels of gram-negative non-fermenters compared to untreated controls ([4]; 68 to 689 kPa): reduced at all pressures
- decrease of gram-negative non-lactose fermenting bacteria compared to initial counts ([4]; 689 kPa): 0.64 log10 cfu/ml
- reductions in populations of Lactobacillus plantarum [5]: more than 6 logs
